# Literature values, collected in patent US20160018671A1, “DRUG DELIVERY FROM CONTACT LENSES WITH A FLUIDIC MODULE” (ONEFOCUS TECHNOLOGY, LLC, priority 2013, published 2016).
# Counter-ions that a name gives are not always drawn.
# Conditions: contact lenses passively impregnated with the drug; for IOP reductions: compared with conventional therapy
Compound,toxicity,IOP reductions
CC(C)(C)NC[C@H](O)COc1nsnc1N1CCOCC1 [timolol maleate],no toxicity,equivalent to conventional therapy
brimonidine tartrate,no toxicity,equivalent to conventional therapy
